Experimental data published in ChEMBL document CHEMBL5120780, “Novel indazole skeleton derivatives containing 1,2,3-triazole as potential anti-prostate cancer drugs” (Bioorg Med Chem Lett, 2022).

Tests used:
[1] = tested on: PC-3; assay: Antiproliferative activity against human PC-3 cells assessed as inhibition of cell growth incubated for 72 hrs by MTT assay; assay type: functional, cell-based; conditions: PC-3, 72 h
[2] = tested on: MCF7; assay: Antiproliferative activity against human MCF7 cells assessed as inhibition of cell growth incubated for 72 hrs by MTT assay; assay type: functional, cell-based; conditions: MCF7, 72 h
[3] = tested on: HepG2; assay: Antiproliferative activity against human HepG2 cells assessed as inhibition of cell growth incubated for 72 hrs by MTT assay; assay type: functional, cell-based; conditions: HepG2, 72 h
[4] = tested on: MGC-803; assay: Antiproliferative activity against human MGC-803 cells assessed as inhibition of cell growth incubated for 72 hrs by MTT assay; assay type: functional, cell-based; conditions: MGC-803, 72 h
[5] = tested on: PC-3; assay: Inhibition of colony formation in human PC-3 cells incubated for 7 days by crystal violet staining based analysis; assay type: functional, cell-based; conditions: dose 2-8 µM, time 7.0 day, DDE = dose-dependent effect
[6] = tested on: PC-3; assay: Induction of cell cycle arrest in human PC-3 cells assessed as accumulation of cells in G2/M phase at 8 uM incubated for 24 hrs by RNase/PI staining based flow cytometry analysis (reference value: 22.17%); assay type: functional
[7] = Cytotoxicity against human WPMY-1 cells assessed as inhibition of cell growth incubated for 72 hrs by MTT assay; assay type: toxicity, cell-based
[8] = Selectivity ratio of IC50 for cytotoxicity against human WPMY-1 cells to IC50 for antiproliferative activity against human PC-3 cells; assay type: toxicity, cell-based; conditions: WPMY-1 cells and PC-3 cells, read-out: Ratio IC50
[9] = Toxicity in wild type KM mouse assessed as animal survival at 2 g/Kg, IG measured for 2 weeks; conditions: in vivo, po, 2000 mg/kg, 336 h
[10] = Toxicity in wild type KM mouse assessed as behavioral abnormalities at 2 g/Kg, IG measured for 2 weeks; conditions: in vivo, po, 2000 mg/kg, 336 h
[11] = Toxicity in wild type KM mouse assessed as change in heart morphology at 2 g/Kg, IG measured for 2 weeks by H and E staining based microscopic analysis; assay type: tissue-based; conditions: in vivo, po, 2000 mg/kg, 336 h
[12] = Toxicity in wild type KM mouse assessed as change in liver morphology at 2 g/Kg, IG measured for 2 weeks by H and E staining based microscopic analysis; assay type: tissue-based; conditions: in vivo, po, 2000 mg/kg, 336 h
[13] = Toxicity in wild type KM mouse assessed as change in spleen morphology at 2 g/Kg, IG measured for 2 weeks by H and E staining based microscopic analysis; conditions: in vivo, po, 2000 mg/kg, 336 h
[14] = Toxicity in wild type KM mouse assessed as change in lung morphology at 2 g/Kg, IG measured for 2 weeks by H and E staining based microscopic analysis; conditions: in vivo, po, 2000 mg/kg, 336 h
[15] = Toxicity in wild type KM mouse assessed as change in kidney morphology at 2 g/Kg, IG measured for 2 weeks by H and E staining based microscopic analysis; conditions: in vivo, po, 2000 mg/kg, 336 h
[16] = Toxicity in wild type KM mouse assessed as change in prostate morphology at 2 g/Kg, IG measured for 2 weeks by H and E staining based microscopic analysis; conditions: in vivo, po, 2000 mg/kg, 336 h

| SMILES | IC50 [1] [µM] | IC50 [2] [µM] | IC50 [3] [µM] | IC50 [4] [µM] | further results |
| --- | --- | --- | --- | --- | --- |
| Cc1ccc(-n2cc(CNC(=O)c3cccc4c3cnn4C(C)C)nn2)cc1C | 23.4 | > 40 | > 40 | > 40 |  |
| Cc1ccccc1-n1cc(CNC(=O)c2cccc3c2cnn3C(C)C)nn1 | 19.2 | > 40 | > 40 | > 40 |  |
| Cc1ccc(-n2cc(CNC(=O)c3cccc4c3cnn4C(C)C)nn2)cc1 | 39 | > 40 | > 40 | > 40 |  |
| CC(C)n1ncc2c(C(=O)NCCN3CCCCC3)cccc21 | > 40 | > 40 | > 40 | > 40 |  |
| CC(C)n1ncc2c(C(=O)Nc3ccccc3)cccc21 | 11.9 | 19.7 | 23.7 | 38.5 |  |
| CC(C)n1ncc2c(C(=O)NCCN3CCN(C)CC3)cccc21 | > 40 | > 40 | > 40 | > 40 |  |
| CC(C)n1ncc2c(C(=O)NCCN(C)C)cccc21 | > 40 | > 40 | > 40 | > 40 |  |
| CCc1ccc(-n2cc(CNC(=O)c3cccc4c3cnn4C(C)C)nn2)cc1 | 26.6 | > 40 | > 40 | > 40 |  |
| CC(C)n1ncc2c(C(=O)NCc3cn(-c4ccccc4)nn3)cccc21 | 25.9 | > 40 | > 40 | > 40 |  |
| CC(C)n1ncc2c(C(=O)NC3CCCC3)cccc21 | 19.4 | > 40 | > 40 | > 40 |  |
| CC(C)n1ncc2c(C(=O)NCc3cn(-c4cccc(Br)c4)nn3)cccc21 | 33.7 | > 40 | > 40 | > 40 |  |
| CC(C)n1ncc2c(C(=O)NCc3ccccc3)cccc21 | 15.2 | > 40 | > 40 | > 40 |  |
| O=c1[nH]cc(F)c(=O)[nH]1 [FLUOROURACIL] |  | 15.1 | 11.7 |  |  |
| CC(C)n1ncc2c(C(=O)NCc3cn(-c4ccccc4F)nn3)cccc21 | > 40 | > 40 | > 40 | > 40 |  |
| Cc1cccc(-n2cc(CNC(=O)c3cccc4c3cnn4C(C)C)nn2)c1 | 32.3 | > 40 | > 40 | > 40 |  |
| CC(C)n1ncc2c(C(=O)NCc3cn(Cc4ccc(C(C)(C)C)cc4)nn3)cccc21 | 8.89 | > 40 | > 40 | > 40 |  |
| CC(C)n1ncc2c(C(=O)NCc3cn(-c4ccc(I)cc4)nn3)cccc21 | > 40 | > 40 | > 40 | > 40 |  |
| CC(C)n1ncc2c(C(=O)NCc3cn(-c4ccc([N+](=O)[O-])cc4)nn3)cccc21 | > 40 | > 40 | > 40 | > 40 |  |
| COc1ccc(Cn2cc(CNC(=O)c3cccc4c3cnn4C(C)C)nn2)cc1 | 34 | > 40 | > 40 | > 40 |  |
| CC(C)n1ncc2c(C(=O)NCc3cn(-c4ccc(F)cc4)nn3)cccc21 | > 40 | > 40 | > 40 | > 40 |  |
| CC(C)n1ncc2c(C(=O)NCc3cn(Cc4ccccc4)nn3)cccc21 | 4.42 | 9.17 | 13.7 | 14.3 | inhibition [5]: Dde; Activity [6]: 72.25%; IC50 at 72 h [7]: 20.3 µM; selectivity ratio [8]: 4.42; Activity [9]: Non-Toxic; Activity [10]: Non-Toxic; Activity [11]: Non-Toxic; Activity [12]: Non-Toxic; Activity [13]: Non-Toxic; Activity [14]: Non-Toxic; Activity [15]: Non-Toxic; Activity [16]: Non-Toxic |
| Cc1ccc(-n2cc(CNC(=O)c3cccc4c3cnn4C(C)C)nn2)c(C)c1 | 10.6 | > 40 | > 40 | > 40 |  |
| CC(C)n1ncc2c(C(=O)NCc3cn(Cc4ccc(C#N)cc4)nn3)cccc21 | 18.2 | > 40 | > 40 | 39.6 |  |
| COc1ccc(-n2cc(CNC(=O)c3cccc4c3cnn4C(C)C)nn2)cc1 | 34.3 | > 40 | > 40 | > 40 |  |
| CC(C)n1ncc2c(C(=O)NCc3cn(-c4ccc(C(F)(F)F)cc4)nn3)cccc21 | 38.6 | > 40 | > 40 | > 40 |  |
| CC(C)n1ncc2c(C(=O)NCCN3CCCC3)cccc21 | > 40 | > 40 | > 40 | > 40 |  |
| CC(C)n1ncc2c(C(=O)NCc3cn(Cc4ccc(C(F)(F)F)cc4)nn3)cccc21 | 23.9 | > 40 | > 40 | > 40 |  |
| CC(C)n1ncc2c(C(=O)NCc3cn(-c4cccc(F)c4)nn3)cccc21 | 36.1 | > 40 | > 40 | > 40 |  |
| CC(C)n1ncc2c(C(=O)Nc3cccnc3)cccc21 | > 40 | > 40 | > 40 | > 40 |  |
| CNC(=O)c1ccc(N2C(=S)N(c3ccc(C#N)c(C(F)(F)F)c3)C(=O)C2(C)C)cc1F [ENZALUTAMIDE] | 24.6 |  |  |  | IC50 at 72 h [7]: 61.4 µM; selectivity ratio [8]: 2.49 |
